{"source": "patent US20260124194A1", "about": "(priority 2022, published 2026)", "key": {"[1]": {"system": "patients with chronic intestinal pseudo-obstruction", "conditions": "prucalopride 2 mg, 12-week periods, cited from earlier work"}, "[2]": {"system": "Prp-SCA7-92Q transgenic mice", "test": "Morphometric gut evaluation (HE histological score) in Prp-SCA7-92Q transgenic mice", "format": "in vivo", "conditions": "Prp-SCA7-92Q mice", "protocol": "After mice were sacrificed by CO2 inhalation, the small intestine and colon tissue were cut, fixed for 48 hours with 10% neutral buffered formalin. The paraffin sample was prepared by dehydration with a series of gradient alcohol solutions according to standard methods known in the field. Tissues were cut into 4 μm sections by rotary microtome and baked for 2 hours at 60° C. After (HE) hematoxylin-eosin (HE) images were obtained from each animal at 20× magnification for histological analyses by fully automatic digital pathology slide-system (KF BIO, KF-PRO-005, China) using K-viewer Imaging software (KF BiO, V1, China).\nThe presence of inflammation and ulcers was quantified using indicators (i.e. ulcers=% area with intestinal mucosal damage, inflammation=necrosis, bleeding) to which a score from 0 to 3 was associated. Inflammation and ulcers scoring were awarded after section evaluation and analysis."}, "Prp-SCA7-92Q mice": {"system": "Prp-SCA7-92Q mice", "test": "Body weight and tolerability in Prp-SCA7-92Q mice", "format": "in vivo", "conditions": "1 and 3 mg/kg, 5 weeks of treatment", "text": "A normal control (NC) group of untreated wild-type mice was also examined. No significant differences were noticed between groups (FIG. 13)."}, "[3]": {"system": "subjects with idiopathic Chronic Intestinal Pseudo-Obstruction (CIPO)", "protocol": "Safety was assessed at each visit measuring and evaluating changes from the baseline of the following parameters: • Vital signs (including blood pressure, pulse, temperature). • Physical examination also including height and weight. • Routine laboratory parameters (hematocrit, hemoglobin, red blood cell count, white blood cell count with differential count and platelet count for hematology; glycaemia, total cholesterol, triglycerides, serum creatinine, urea or blood urea nitrogen [BUN], sodium, potassium, chloride, AST, ALT, Gamma-GT, alkaline phosphatase, total and fractioned bilirubin (direct and indirect), erythrocyte sedimentation rate, PT (or INR), aPTT for biochemistry; specific gravity, pH, protein, glucose, ketones, hemoglobin, nitrite, bilirubin, urobilinogen and microscopic examination for urinalysis). • Triplicate ECG • Adverse events (AEs). • Withdrawal from study due to AEs.\nAdverse events starting on or after the first intake of investigational product were considered treatment-emergent AEs (TEAEs). Verbatim terms for AEs were coded using the most current version of Medical Dictionary for Regulatory Activities (MedDRA) coding. […]"}, "[4]": {"system": "subjects with idiopathic Chronic Intestinal Pseudo-Obstruction (CIPO)", "conditions": "in vivo", "text": "Visits where assessed at the beginning of the screening period (Visit 1), at the beginning and at the end of each period of treatment (Visit 2 to Visit 9) and at the end of the follow-up period (Visit 10).\nPLA=matching placebo once daily for 4 weeks.\nGastrointestinal symptom severity (abdominal pain, bloating, nausea and vomiting) and bowel habit (weekly recall) were registered on Day −1 and weekly after randomization, during both treatment and washout periods, as appropriate according to the Schedule of Assessments using an e-diary until end of follow up period.\nSubjects were instructed to take three capsules of medication orally, once daily at approximately the same time each morning, on an empty stomach, with water.\nThe Primary efficacy endpoints was to evaluate the change in weekly global gastrointestinal symptoms average index score (WGGSAIS) from start to the end of each treatment period.\nThe WGGSAIS was obtained by averaging the scores for each of the 4 symptoms assessed weekly: abdominal pain, bloating, nausea and vomiting, with lower scores representing better health. If at least 2 symptoms were assessed, the average score was calculated, otherwise, it was considered missing.\nChange between the end of treatment and pre-treatment WGGSAIS value≤−1 point was computed and considered a “success” while changes >−1 were considered a “failure”. The proportion of subjects with a 1-point improvement in WGGSAIS is summarized by treatment sequence, period and timepoint (weekly evaluation by e Diary.\nConsidering the evaluable pairs, the proportions of pairs of observations with 1-point improvement in WGGSAIS is summarized by treatment and timepoint. […]\nConsidering the evaluable pairs, the number of pseudo-obstruction episodes occurring within each treatment period and number of pseudo-obstruction episodes occurring within wash-out/follow up was considered as categorical variables classified as 0, 1, 2 and >2 and are summarized by treatment.\nThe same descriptive analyses described above are repeated focusing on change from the end of each treatment period to the end of each week of washout period or follow-up period instead of the change between post-treatment and pre-treatment."}}, "note": "“And” between values parts separate entries of the source, which are not always exact repeats. Equal values may be shown once. Marks after values point to notes of the source that are not given here."}
{"smiles": "COCCCN1CCC(NC(=O)c2cc(Cl)c(N)c3c2OCC3)CC1", "note": "[prucalopride]", "values": [{"measurement": "stool frequency and consistency", "setting": "[1]", "result": "did not affect"}, {"measurement": "patients with significantly improved bloating", "setting": "[1]; four completers", "result": "four"}, {"measurement": "patients with significantly improved nausea", "setting": "[1]; four completers", "result": "two"}, {"measurement": "patients with significantly improved pain", "setting": "[1]; four completers", "result": "three of four patients"}, {"measurement": "patients with significantly improved vomiting", "setting": "[1]; four completers", "result": "one"}]}
{"smiles": "CC(C)n1c(=O)c(C(=O)N[C@H]2C[C@H]3CC[C@@H](C2)N3C[C@@H](O)CN(C)S(C)(=O)=O)cc2ccccc21", "note": "[velusetrag, 1-isopropyl-2-oxo-1,2-dihydroquinoline-3-carboxylic acid {(1S,3R,5R)-8-[(R)-2-hydroxy-3-(methanesulfonyl-methyl-amino)propyl]-8-azabicyclo[3.2.1]oct-3-yl}amide]", "values": [{"measurement": "Inflammation (count of necrosis) score, DSI", "setting": "[2]; 1 mg/kg po once daily 5 weeks", "result": "1.6 ± 0.1"}, {"measurement": "Inflammation (count of necrosis) score, Proximal Colon", "setting": "[2]; 1 mg/kg po once daily 5 weeks", "result": "1.5 ± 0.1"}, {"measurement": "Total score, DSI", "setting": "[2]; 1 mg/kg po once daily 5 weeks", "result": "2.4 ± 0.1"}, {"measurement": "Total score, Proximal Colon", "setting": "[2]; 1 mg/kg po once daily 5 weeks", "result": "2.4 ± 0.1"}, {"measurement": "Ulcers (mucosal damage) score, DSI", "setting": "[2]; 1 mg/kg po once daily 5 weeks", "result": "0.8 ± 0.1^∘"}, {"measurement": "Ulcers (mucosal damage) score, Proximal Colon", "setting": "[2]; 1 mg/kg po once daily 5 weeks", "result": "0.9 ± 0.05"}, {"measurement": "Inflammation (count of necrosis) score, DSI", "setting": "[2]; 3 mg/kg po once daily 5 weeks", "result": "1.2 ± 0.1*^∘∘∘"}, {"measurement": "Inflammation (count of necrosis) score, Proximal Colon", "setting": "[2]; 3 mg/kg po once daily 5 weeks", "result": "1.1 ± 0.1*^∘∘∘"}, {"measurement": "Total score, DSI", "setting": "[2]; 3 mg/kg po once daily 5 weeks", "result": "1.8 ± 0.1**^∘"}, {"measurement": "Total score, Proximal Colon", "setting": "[2]; 3 mg/kg po once daily 5 weeks", "result": "1.5 ± 0.1*^∘∘∘"}, {"measurement": "Ulcers (mucosal damage) score, DSI", "setting": "[2]; 3 mg/kg po once daily 5 weeks", "result": "0.6 ± 0.1^∘"}, {"measurement": "Ulcers (mucosal damage) score, Proximal Colon", "setting": "[2]; 3 mg/kg po once daily 5 weeks", "result": "0.4 ± 0.01^∘∘"}, {"measurement": "tolerability: body weight and lethality throughout treatment", "setting": "Prp-SCA7-92Q mice", "result": "no reduction in body weight and lethality was observed"}, {"measurement": "total TEAEs classified as velusetrag emergent", "setting": "[3]; Safety Set (placebo emergent 38)", "result": 29}, {"measurement": "subjects with TEAEs classified as velusetrag emergent, %", "setting": "[3]; Safety Set, 17 subjects (placebo emergent 58.82%)", "result": 41.18, "unit": "%"}, {"measurement": "WGGSAIS total score, mean change from end of treatment at the end of wash-out", "setting": "[4]", "result": "0.54±0.736"}, {"measurement": "WGGSAIS, mean", "setting": "[4]", "result": "1.707 and 1.608 and 1.367 and 1.458"}, {"measurement": "WGGSAIS, mean change from pre-treatment to end of treatment", "setting": "[4]", "result": "−0.529±0.7956"}, {"measurement": "WGGSAIS, mean difference between treatments (velusetrag minus placebo)", "setting": "[4]", "result": "−0.342+0.9343"}]}
